Like-named read-outs stand apart in the source and are kept apart here.
How the values were obtained:
[1] = biological target: T1, HDAC6 (Rattus norvegicus, UniProt A0A8I6GM68); assay: biochemical; type: biochemical
T1 construct: partially purified extract from rat liver; from tissue; host or cells: rat liver, partially purified extract
Description: (§1) After centrifugation, the cleared extract was used for immunoprecipitation of HDAC1. […] Incubation was performed for 45 min at 37°C (immunoprecipitates) or 30 min at room temperature (HeLa nuclear extract). Before addition of substrate, HDAC inhibitors were added at increasing concentrations and preincubated for 10 min at room temperature. After incubation, the reaction was quenched with 35 μl stop buffer (1 M HCl and 0.4 M acetic acid). Released [^3H]acetic acid was extracted with 800 μl ethyl acetate and quantified by scintillation counting. Equal amounts of HDAC1 were immunoprecipitated as indicated by western blot analysis. Histone deacetylase 1 activity results are presented as mean±s.d. of three independent experiments on a single lysate. […] Finally, we measured the activities of different HDAC isotypes present in partially purified extract from rat liver using the fluorescent HDAC substrates MAL (unselective), B61 (selective for HDAC1, and to some extent also converted by HDAC3) and B12 (selective for HDAC6).

[2] = test system: tubulin acetylation and Hsp70 in A2780 ovarian carcinoma cells; assay: Western blot of acetylated tubulin and Hsp70 in A2780 cells (HDAC6 readout); type: cell-based, human; conditions: for concentration at which tubulin acetylation (and Hsp70 induction) is evident: western blot
Description: (§2) Human A2780 ovarian carcinoma cells were incubated with the indicated concentrations of HDAC inhibitors. Total cell lysates were prepared and analysed by SDS–PAGE. […] To control for equal loading, blots were stripped and re-probed with mouse monoclonal antiactin IgM (Ab-1, Oncogene Research products, Merck, Darmstadt, Germany). […] Protein–antibody complexes were then visualised by chemiluminescence (Pierce Chemical Co., Perbioscience, Erembodegem, Belgium) or fluorescence (Odyssey) according to manufacturer's instructions.
(§3) Total cell lysates were prepared and analysed by SDS–PAGE. Levels of acetylated H3 and tubulin, and of total levels of H3 and tubulin and of p21^waf1, cip1 and Hsp70 and c-raf protein, were detected using rabbit polyclonal and mouse monoclonal antibodies, followed by ECL detection as indicated in the Methods section. To control for equal loading, blots were stripped and re-probed with antibodies against actin and the nuclear protein Lamin B1. A representative experiment out of three is shown.

[3] = biological target: HDAC1 (Rattus norvegicus, UniProt Q4QQW4); type: biochemical
Description: After centrifugation, the cleared extract was used for immunoprecipitation of HDAC1. […] (Amersham Pharmacia Biotech, Piscataway, NJ, USA) in a total volume of 50 μl enzyme assay buffer (25 mM HEPES (pH 7.4), 1 M sucrose, 0.1 mg ml^−1 BSA and 0.01% (v v^−1) Triton X-100). Incubation was performed for 45 min at 37°C (immunoprecipitates) or 30 min at room temperature (HeLa nuclear extract). Before addition of substrate, HDAC inhibitors were added at increasing concentrations and preincubated for 10 min at room temperature. After incubation, the reaction was quenched with 35 μl stop buffer (1 M HCl and 0.4 M acetic acid). Released [^3H]acetic acid was extracted with 800 μl ethyl acetate and quantified by scintillation counting. Equal amounts of HDAC1 were immunoprecipitated as indicated by western blot analysis. Histone deacetylase 1 activity results are presented as mean±s.d. of three independent experiments on a single lysate. […] Finally, we measured the activities of different HDAC isotypes present in partially purified extract from rat liver using the fluorescent HDAC substrates MAL (unselective), B61 (selective for HDAC1, and to some extent also converted by HDAC3) and B12 (selective for HDAC6).

[4] = test system: A2780 ovarian carcinoma cells; assay: A2780 tumour cell proliferation, MTT colorimetric assay; type: cell-based, human; conditions: 4 days, mean±s.d.
Description: Control cells were treated with the combined respective vehicle.

[5] = test system: H3 acetylation and p21waf1,cip1 in A2780 ovarian carcinoma cells; assay: Western blot of acetylated H3 and p21waf1,cip1 in A2780 cells (class I HDAC readout); type: cell-based, human; conditions: 24 h, western blot
Description: as §2, §3

[6] = test system: HDAC isotypes in partially purified extract from rat liver (MAL, unselective); conditions: read-out: Liver extract MAL unselective IC50, substrate MAL
Description: as §1

T1 sequence (A0A8I6GM68 whole entry): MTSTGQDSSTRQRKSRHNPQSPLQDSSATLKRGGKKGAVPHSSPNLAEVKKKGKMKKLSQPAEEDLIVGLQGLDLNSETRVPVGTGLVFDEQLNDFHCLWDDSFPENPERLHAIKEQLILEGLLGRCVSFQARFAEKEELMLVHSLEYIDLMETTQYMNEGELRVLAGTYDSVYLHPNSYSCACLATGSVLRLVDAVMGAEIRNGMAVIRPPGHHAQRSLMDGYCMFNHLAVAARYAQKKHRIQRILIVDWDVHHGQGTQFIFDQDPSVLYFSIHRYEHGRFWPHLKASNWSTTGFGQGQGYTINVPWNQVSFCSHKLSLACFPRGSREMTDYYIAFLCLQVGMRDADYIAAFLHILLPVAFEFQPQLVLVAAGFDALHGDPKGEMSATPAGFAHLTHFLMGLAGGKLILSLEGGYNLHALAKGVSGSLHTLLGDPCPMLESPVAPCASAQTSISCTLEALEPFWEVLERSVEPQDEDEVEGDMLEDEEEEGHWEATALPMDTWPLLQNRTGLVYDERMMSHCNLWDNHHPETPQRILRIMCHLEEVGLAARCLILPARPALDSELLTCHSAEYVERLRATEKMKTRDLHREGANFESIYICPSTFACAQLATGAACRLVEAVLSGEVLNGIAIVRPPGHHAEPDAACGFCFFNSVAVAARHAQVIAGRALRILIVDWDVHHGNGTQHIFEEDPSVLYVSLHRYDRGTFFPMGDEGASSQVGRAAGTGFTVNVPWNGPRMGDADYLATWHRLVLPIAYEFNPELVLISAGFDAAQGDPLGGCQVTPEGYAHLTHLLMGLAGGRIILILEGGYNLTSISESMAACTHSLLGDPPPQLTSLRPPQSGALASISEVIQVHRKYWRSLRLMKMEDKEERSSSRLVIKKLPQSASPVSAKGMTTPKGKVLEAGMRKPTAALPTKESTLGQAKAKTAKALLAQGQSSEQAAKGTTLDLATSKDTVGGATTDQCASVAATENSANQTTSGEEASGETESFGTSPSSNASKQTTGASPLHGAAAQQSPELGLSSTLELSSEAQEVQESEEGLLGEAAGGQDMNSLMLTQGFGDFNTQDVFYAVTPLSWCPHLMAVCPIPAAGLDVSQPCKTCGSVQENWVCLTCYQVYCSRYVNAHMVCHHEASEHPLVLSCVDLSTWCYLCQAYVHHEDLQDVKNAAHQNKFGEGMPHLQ
HDAC1, sequence (Q4QQW4 whole entry): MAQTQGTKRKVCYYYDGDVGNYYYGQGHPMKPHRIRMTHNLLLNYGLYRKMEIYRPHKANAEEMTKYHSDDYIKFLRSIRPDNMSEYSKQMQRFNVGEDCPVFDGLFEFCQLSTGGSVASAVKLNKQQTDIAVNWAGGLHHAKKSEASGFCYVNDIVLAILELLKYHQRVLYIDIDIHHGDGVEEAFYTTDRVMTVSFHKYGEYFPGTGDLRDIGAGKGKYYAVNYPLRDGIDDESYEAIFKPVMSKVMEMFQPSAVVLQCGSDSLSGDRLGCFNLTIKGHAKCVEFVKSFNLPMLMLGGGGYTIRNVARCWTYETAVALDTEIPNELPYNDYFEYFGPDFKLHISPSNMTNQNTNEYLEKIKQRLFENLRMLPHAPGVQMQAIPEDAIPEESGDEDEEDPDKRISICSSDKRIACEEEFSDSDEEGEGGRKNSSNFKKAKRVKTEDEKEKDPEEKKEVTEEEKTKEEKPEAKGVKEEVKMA

Structure (SMILES)	IC50 [4] [nM]	concentration at which H3 acetylation is induced [5] [nM]	IC50 [6] [nM]	concentration at which tubulin acetylation (and Hsp70 induction) is evident ([2]; 24 h) [nM]	also measured
Nc1ccccc1NC(=O)c1ccc(CNC(=O)OCc2cccnc2)cc1 [MS-275]	376 ± 169	3000			Liver extract B12 HDAC6 IC50 ([1]; rat liver extract, substrate B12): Inactive; effect on tubulin acetylation or Hsp70 levels ([2]; 3 μM, 24 h): did not affect tubulin acetylation or Hsp70 levels; Liver extract B61 HDAC1 IC50 ([3]; rat liver extract, substrate B61): Inactive
Cc1[nH]c2ccccc2c1CCNCc1ccc(/C=C/C(=O)NO)cc1 [Panobinostat]		100	75 ± 4	100	IC50 [1]: 89 ± 12 nM; substrate preference B61 (HDAC1/HDAC3) vs B12 (HDAC6) ([1]; rat liver HDAC preparation): equipotent activity towards both substrates; IC50 ([4]; Homo sapiens, A2780, 96 h): 4.6 ± 1.8 nM
CC(/C=C/C(=O)NO)=C\[C@@H](C)C(=O)c1ccc(N(C)C)cc1 [TSA, Trichostatin A]	23 ± 8	300	12 ± 1.2	300	IC50 ([1]; read-out: Liver extract B12 HDAC6 IC50): 20.7 ± 2.6 nM
O=C(CCCCCCC(=O)Nc1ccccc1)NO [Vorinostat, suberoylanilide hydroxamic acid]					cellular potency for HDAC6 vs HDAC1 (higher for HDAC6) ([2]; tubulin acetylation vs H3 acetylation): 10 fold; IC50 ([3]; read-out: Liver extract B61 HDAC1 IC50): 1030 ± 201 nM
